Laboratory results taken from patent US9962430B2, “Methods for treating pain associated with chronic pancreatitis” (priority 2012, dated 2018).

How the values were obtained:
patients with CP = details: cited from earlier work
[1] = tested on: patients with type B pain from chronic pancreatitis; assay: Phase II dose-escalation trial: daily opioid use converted to morphine equivalents; format: in vivo, human; details: for daily opioid usage (oral morphine equivalents): baseline 136 mg
[2] = tested on: patients with type B pain from chronic pancreatitis; assay: Phase II dose-escalation trial: quality of life by SF-36 score; format: in vivo, human; details: for mean SF-36 score: baseline 101.3
[3] = tested on: patients with type B pain from chronic pancreatitis; assay: Phase II dose-escalation trial: 10 point visual analogue scale (VAS) pain assessment; format: in vivo, human; details: for mean pain score (VAS): all patients, baseline mean VAS 5.79; for Pain (VAS 0-10), mean: 100 min post dose, baseline 6.04
[4] = 800 CU (160 mcg) twice daily for seven days, drug administration arm

depot secretin: subcutaneous depot secretin, 800 CU (160 mcg) twice daily, Tympner and Rosch 1986
serum amylase levels (patients with CP; 800 CU (160 mcg) twice daily for seven days): strong trend towards decreased
lactoferrin (patients with CP; [4]): decreased
trypsin (patients with CP; [4]): decreased
viscosity of pancreatic secretion (patients with CP; [4]): decreased
pain levels at the end of the study (patients with CP; 800 CU (160 mcg) twice daily injection for seven days, p<0.05): significantly improved

sHS: ChiRhoStim (human secretin for injection) provided by ChiRhoClin Inc.; 27 amino acid gastrointestinal peptide hormone
daily opioid equivalent, females ([1]; Day 30, females, baseline 107 mg, p=0.53): 84 mg
daily opioid usage (oral morphine equivalents) ([1]; day 4 post-therapy, p=0.52): 111 mg
daily opioid usage (oral morphine equivalents) ([1]; day 30 post-therapy, p=0.34): 104 mg
mean SF-36 score ([2]; day 4): 100.9
mean SF-36 score ([2]; day 30): 101.5
quality of life as measured by SF-36 with therapy ([2]; overall statement): unaltered
mean pain (VAS), female subgroup ([3]; day 30, females, baseline 5.42, p=0.07): 3.67
optimal dosing based on the change in the VAS score ([3]; dose-escalation 0.05-0.8 mcg/kg IV bolus): 0.4 µg/kg
mean pain score (VAS) ([3]; post-treatment day 4, p=0.25 vs baseline, IV bolus 3x/day for 3 days): 4.80
mean pain score (VAS) ([3]; post-treatment day 10, p=0.19 vs baseline): 4.72
mean pain score (VAS) ([3]; post-treatment day 30, p=0.27 vs baseline): 4.90
Pain (VAS 0-10), mean ([3]; sHS dose 0.05 μg/kg): 4.92
Pain (VAS 0-10), mean ([3]; sHS dose 0.1 μg/kg): 5.06
Pain (VAS 0-10), mean ([3]; sHS dose 0.2 μg/kg): 4.92
Pain (VAS 0-10), mean ([3]; sHS dose 0.4 μg/kg): 4.5
Pain (VAS 0-10), mean ([3]; sHS dose 0.8 μg/kg): 5.36
